Molecules are shown by their SMILES.

Assay [1] concerns mitochondrial-encoded genes (ND1, Cytb, COX1 and ATP6). The assay is described as follows: qPCR of mitochondrial-encoded genes in gastrocnemius of NMN-treated mice. It counts as in vivo. The source says: (§1) C57BL/6J mice of 6, 22, or 30 months of age were obtained from the National Institutes of Aging mouse aging colony. Additionally 22 months old caloric restricted mice were also obtained from the National Institutes of Aging mouse aging colony. EGLN1 KO, SIRT1 KO and SIRT1 OE mice were generated as previously described (Minamishima et al., 2008; Price et al., 2012). Mice were acclimated for at least one-week prior to sacrifice. 3, 6, 22 and 24-month-old mice were given interperitoneal (IP) injections of 500 mg NMN/kg body weight per day or the equivalent volume of PBS for 7 consecutive days at 5:00 pm and 7:00 am on day 8 and sacrificed 4 hr after last injection.
(§2) Whole body adult-inducible Egln1 knockout mice (Minamishima et al, 2007) were treated with IP injection of tamoxifen for 3 days after which they were allowed to rest. The mice were given interperitoneal (IP) injections of 500 mg NMN/kg body weight per day or the equivalent volume of PBS for 7 consecutive days at 5:00 pm and 7:00 am on day 8 and sacrificed 4 hr after last injection. All animal studies followed the guidelines of and were approved by the Harvard Institutional Animal Care and Use Committee.
RNA from skeletal muscle tissue and C2C12 cells were extracted with RNeasy mini kit (Qiagen) according to the instructions and quantified using the NanoDrop 1000 spectrophotometer (Thermo Scientific). cDNA was synthesized with the iSCRIP cDNA synthesis kit (BioRad) using 600 ng of RNA. Quantitative RT-PCR reactions were performed using 1 μM of primers and LightCycler® 480 SYBR Green Master (Roche) on an LightCycler® 480 detection system (Roche). Calculations were performed by a comparative method (2-ΔCT) using 18S as an internal control. For mtDNA analysis, total DNA was extracted with DNeasy blood and tissue kit (Qiagen). mtDNA was amplified using primers specific for the mitochondrial cytochrome c oxidase subunit 2 (COX2) gene and normalized to genomic DNA by amplification of the ribosomal protein s18 (rps18) nuclear gene. […]
(In general: Real-time PCR tracks product formation cycle by cycle.)

Another assay concerns PGC-1α/β KO myotubes. The assay is described as follows: Gene expression (qPCR) and HIF-1α immunoblot in PGC-1α/β KO myotubes. Format: cell-based, mice. Further details: expression of mitochondrially-encoded ETC genes (ND1, CYTB, COX1, ATP6): dose or concentration left out as unconfirmed. Particulars: primary PGC-1α/β KO myotubes incubated with NMN (12 h). As for the experimental part:
(§3) Primary myoblasts cells were isolated from WT, SIRT1 KO (Price et al., 2012) and PGC-1α/β KO (Zechner et al., 2010) mice as previously described (Price et al., 2012). WT and PGC-1α/β KO primary myoblasts were plated and allowed to differentiate into myotubes by replacing the media with low glucose DMEM supplemented with 2% horse serum (Sigma-Aldrich) for 4 days. After the differentiation the cells were infected with empty vector or flag-SIRT1 adenovirus as described before (Gerhart-Hines et al., 2007). Media was replaced with fresh DMEM supplemented with 2% horse serum (Sigma-Aldrich) for an additional 48 hr and, after that the cells were harvested for the different assays as described. To investigate the role of HIF-1α in genome asynchrony, PGC-1α/β KO primary myotubes were treated for 12 hours with 1 mM DMOG (Sigma) or 10 μM DFO (Sigma), 24 h after infection with empty vector of flag-SIRT1 adenovirus or after 12 h treatment with 500 mM NMN (Sigma).
RNA from skeletal muscle tissue and C2C12 cells were extracted with RNeasy mini kit (Qiagen) according to the instructions and quantified using the NanoDrop 1000 spectrophotometer (Thermo Scientific). cDNA was synthesized with the iSCRIP cDNA synthesis kit (BioRad) using 600 ng of RNA. Quantitative RT-PCR reactions were performed using 1 μM of primers and LightCycler® 480 SYBR Green Master (Roche) on an LightCycler® 480 detection system (Roche). Calculations were performed by a comparative method (2-ΔCT) using 18S as an internal control. For mtDNA analysis, total DNA was extracted with DNeasy blood and tissue kit (Qiagen). mtDNA was amplified using primers specific for the mitochondrial cytochrome c oxidase subunit 2 (COX2) gene and normalized to genomic DNA by amplification of the ribosomal protein s18 (rps18) nuclear gene. Primers were designed using the IDT software (IDT) and the primer sequences can be found in Table 1.
(§4) Protein extracts from tissue or C2C12 cells were obtained by lysis in ice-cold lysis buffer (150 mM NaCl, 10 mM Tris HCl (pH 7.4), 1 mM EDTA, 1 mM EGTA, 1% Triton X-100, 0.5% NP-40) supplemented with a cocktail of protease and phosphatase inhibitors (Roche). Protein content was determined by the Bradford protein assay (Biorad), and 50 μg proteins were run on SDS-PAGE under reducing conditions. The separated proteins were then electrophoretically transferred to a polyvinylidene difluoride membrane (Perkin-Elmer). […] The immunostaining was detected using horseradish peroxidase-conjugated anti-rabbit or anti-mouse immunoglobulin for 1 h at room temperature.

The subject of the next assay is AKT and IRS-1. The experiment in a line: Insulin signaling (phosphorylation of AKT and IRS-1) in skeletal muscle. Format: in vivo. To be noted: soleus of old mice treated with NMN.
Excerpt: as §1, §4

Another assay concerns VHL. The assay is described as follows: Immunoblot for VHL in gastrocnemius of NMN-treated mice. Format: in vivo. Particulars: 22-month-old mice, NMN one week.
Excerpt: as §1, §4
On the technique in general: A western blot detects proteins with antibodies after separation by electrophoresis.

A further assay relates to primary myoblasts. The assay is described as follows: qPCR of mitochondrial-encoded genes in primary myoblasts with NMNAT1 knockdown. Format: cell-based, mice. To be noted: knockdown of NMNAT1, NMN. On the procedure:
as §3, with “To investigate the role of HIF-1α in genome asynchrony, PGC-1α/β KO primary myotubes were treated for 12 hours with 1 mM DMOG (Sigma) or 10 μM DFO (Sigma), 24 h after infection with empty vector of flag-SIRT1 adenovirus or after 12 h treatment with 500 mM NMN (Sigma).” left out
RNA from skeletal muscle tissue and C2C12 cells were extracted with RNeasy mini kit (Qiagen) according to the instructions and quantified using the NanoDrop 1000 spectrophotometer (Thermo Scientific). cDNA was synthesized with the iSCRIP cDNA synthesis kit (BioRad) using 600 ng of RNA. Quantitative RT-PCR reactions were performed using 1 μM of primers and LightCycler® 480 SYBR Green Master (Roche) on an LightCycler® 480 detection system (Roche). […]

The test system of assay [2] is skeletal muscle mitochondria. The experiment in a line: Mitochondrial function in skeletal muscle (membrane potential, ATP content, COX activity). It counts as in vivo, mice. As for the experimental part: C57BL/6J mice of 3, 6, 22, 24, or 30 months of age were obtained from the National Institutes of Aging mouse aging colony. Mice were acclimated for at least one-week prior to sacrifice. 3, and 24-month-old mice were given interperitoneal (IP) injections of 500 mg NMN/kg body weight per day or the equivalent volume of PBS for 7 consecutive days at 5:00 pm and 7:00 am on day 8 and sacrificed 4 hr after last injection. All animal studies followed the guidelines of and were approved by the Harvard Institutional Animal Care and Use Committee
Skeletal muscle mitochondria were isolated as described previously (Frezza et al., Nat. Protoc. 2:287-295 (2007)). Mitochondrial membrane potential, cytochrome c activity and succinate dehydrogenase were determined as described (Brautigan et al., Methods Enzymol. 53:128-164 (1978); Rolo et al., Biochim. Biophys. Acta. 1637:127-132 ([…]); Singer, T. P., Methods Biochem. Anal. 22:123-175 (1974)). ATP content was measured with a commercial kit according to the manufacturer's instructions (Roche).
as §1, §2
Cytochrome c oxidase activity was polarographically determined based on the 02 consumption upon cytochrome c oxidation, as previously described (Brautigan et al., 1978). The reaction was carried out at 25° C. in 1.3 mL of standard respiratory medium (as in mitochondrial respiration) supplemented with 2 μM rotenone, 10 μM oxidized cytochrome c, 0.3 mg TritonX-100. Following addition of the sample, the reaction was initiated by adding 5 mM ascorbate plus 0.25 mM tetramethylphenylene-diamine (TMPD).
ATP content was measured with a commercial kit according to the manufacturer's instructions (Roche).

Where [3] appears, read: Egln1 KO mice treated with NMN, compared to WT controls.
[4] abbreviates: treated 24-month-old mice, NMN 500 mg/kg IP, one week.

For `NC(=O)c1ccc[n+]([C@@H]2O[C@H](COP(=O)([O-])O)[C@@H](O)[C@H]2O)c1` [NMN, nicotinamide mononucleotide], in assay [1] (setting [3]), the “mitochondrial-encoded genes in the skeletal muscle” value is given as “did not restore”. Further, in assay [1] (inducible SIRT1 KO mice, skeletal muscle), the “ability of NMN to induce mitochondrially-encoded genes” value is recorded as “lost in animals lacking SIRT1”. For the same molecule, the “expression of mitochondrial-encoded genes” value is “restored” in assay [1] (old (22-month-old) mice, gastrocnemius, NMN one week) and “completely abolishes the ability of NMN to induce the expression of mitochondrial-encoded genes” with primary myoblasts. Further, the “expression of mitochondrially-encoded ETC genes (ND1, CYTB, COX1, ATP6)” value in the assay with PGC-1α/β KO myotubes is given as “induced expression of mitochondrially-encoded ETC genes”. Moreover, the “insulin signaling (phosphorylation of AKT and IRS-1)” value in the assay on AKT and IRS-1 is given as “restore insulin signaling”. The VHL protein result in the assay with VHL is “reversed the age-induced decline in VHL”. The ATP levels entry is “increase” in assay [2] (22-month-old mice, gastrocnemius, NMN one week) and “increases” in assay [2] (setting [4]). The “ATP levels in the skeletal muscle” value in assay [2] (setting [3]) is given as “did not restore”. For the same molecule, the “ability of NMN to improve mitochondrial function” value in assay [2] (inducible SIRT1 KO mice) is “lost in animals lacking SIRT1”. For the same molecule, the COX activity entry in assay [2] (old mice, NMN one week (FIG. 24H: 3- and 24-month-old)) was “increase”; in assay [2] (setting [4]), “increases”. Also, in assay [2] (setting [4]), the mitochondrial membrane potential entry is “restoration of mitochondrial membrane potential to the levels of the young mice”.

The values above are taken from patent US20150265642A1, “NAD BIOSYNTHESIS AND PRECURSORS IN THE PREVENTION AND TREATMENT OF INFLAMMATION” (PRESIDENT AND FELLOWS OF HARVARD COLLEGE, priority 2013, published 2015).
